Legend:
[1] = Protocol A: fipamezole administered orally in solution to healthy volunteers, pharmacokinetics, safety and tolerability; assay type: in vivo, human; conditions: for Cmax / Tmax / AUC(0-t) / half-life: male, human, plasma; for Cmax: po, human plasma
Experimental: (§1) Fipamezole was administered orally in solution in increasing doses (0.5, 1, 3, 9, 18, 30 and 60 mg) to healthy volunteers (Caucasian males, 18-35 years old, 60-90 kg body weight). Blood samples were taken at intervals for pharmacokinetic evaluation up to 24 hours after each dose. Concentrations of fipamezole in plasma were measured with HPLC-MS/MS. Safety and tolerability were evaluated by standard safety laboratory determinations, ECG recordings, blood pressure and heart rate measurements and by adverse event questioning. The pharmacokinetics were evaluated using the Topfit 2.0 pharmacokinetic program. Cmax and tmax were read from the concentration vs. time curves and the apparent elimination phase half lives from the semi-logarithmic terminal part of the curve. AUC values were calculated both for infinity and up to the last measurable data point.

[2] = Protocol B: fipamezole administered as buccal spray to healthy volunteers, pharmacokinetics and tolerability; assay type: in vivo, human; conditions: for Cmax: human plasma
Experimental: as §1, with “point. […] The protocol used was substantially as for protocol A, except administration was by buccal spray (0.75, 1.5, 3, 7.5, 15, 30, 60 and 90 mg single doses).” for “point.”

[3] = Pharmacokinetics of fast dispersing dosage form in dogs; assay type: in vivo, beagle dogs
Experimental: In this study fipamezole was administered orally as a fast dispersing tablet (formulation as for Example 3 above) (20 mg/kg) via the buccal cavity to pure bred beagle dogs (1 male and 1 female). Throughout the study (8 days, and 4 days pre-study) the subjects were monitored for viability, changes in behaviour, reaction to treatment and ill-health. In addition, body weight and food consumption were recorded. Blood was collected at 10, 20, 30 and 45 minutes and 1, 1.25, 1.5, 2, 2.5, 3, 4 and 8 hours after administration for plasma level analysis (LC/MS/MS method).

[4] = beagle dogs, fast dispersing tablet (formulation as Example 3), 20 mg/kg via buccal cavity

Compound: CCC1(c2c[nH]cn2)Cc2ccc(F)cc2C1.Cl (centres unmarked) [fipamezole, 4-(2-ethyl-5-fluoro-indan-2-yl)-1H-imidazole, hydrochloride salt]
- Cmax ([1]; 0.5 mg): 0.05 ng/mL
- Cmax ([1]; 1 mg): 0.08 ng/mL
- Cmax ([1]; 3 mg): 0.23 ng/mL
- Cmax ([1]; 9 mg): 1.09 ng/mL
- Cmax ([1]; 18 mg): 1.31 ng/mL
- Cmax ([1]; 60 mg): ~2 ng/mL
- Tmax ([1]; oral solution, dose 0.5 mg): 0.88 h
- AUC(0-t) ([1]; oral solution, dose 1 mg): 0.1 ng·h/mL
- Tmax ([1]; oral solution, dose 1 mg): 0.83 h
- AUC(0-t) ([1]; oral solution, dose 3 mg): 0.3 ng·h/mL
- Tmax ([1]; oral solution, dose 3 mg): 0.67 h
- AUC(0-t) ([1]; oral solution, dose 9 mg): 4.2 ng·h/mL
- Tmax ([1]; oral solution, dose 9 mg): 0.67 h
- half-life ([1]; oral solution, dose 9 mg): 2.2 h
- AUC(0-t) ([1]; oral solution, dose 18 mg): 6 ng·h/mL
- Tmax ([1]; oral solution, dose 18 mg): 0.83 h
- half-life ([1]; oral solution, dose 18 mg): 2.4 h
- AUC(0-t) ([1]; oral solution, dose 30 mg): 6.8 ng·h/mL
- Tmax ([1]; oral solution, dose 30 mg): 1.25 h
- half-life ([1]; oral solution, dose 30 mg): 3.1 h
- AUC(0-t) ([1]; oral solution, dose 60 mg): 8.2 ng·h/mL
- Tmax ([1]; oral solution, dose 60 mg): 1.06 h
- half-life ([1]; oral solution, dose 60 mg): 1.8 h
- Level of absorption vs dose ([1]; oral solution, 0.5-60 mg): not dose-proportional
- Safety and tolerability ([1]; oral solution, 0.5-60 mg, healthy volunteers): safe and well tolerated
- Absorption from the buccal mucosa into systemic circulation [2]: rapidly absorbed in a dose-dependent manner
- Relation between dose and Cmax and AUC0-inf values [2]: linear correlation
- Tolerability ([2]; all doses 0.75-90 mg single doses): well tolerated
- Tmax ([2]; dose 0.75 mg): 0.72 h
- Tmax ([2]; dose 1.5 mg): 0.72 h
- Tmax ([2]; dose 7.5 mg): 0.72 h
- Tmax ([2]; dose 15 mg): 0.72 h
- Tmax ([2]; dose 30 mg): 0.72 h
- Cmax ([2]; dose 30 mg): 49.23 ng/mL
- Adverse effects seen after administration ([2]; frequently seen after administration): buccal erythema and whitening
- Cmax ([2]; male, dose 0.75 mg, read-out: Cmax): 1.53 ng/mL
- Cmax ([2]; male, dose 1.5 mg, read-out: Cmax): 3.13 ng/mL
- Cmax ([2]; male, dose 3 mg, read-out: Cmax): 4.76 ng/mL
- Cmax ([2]; male, dose 7.5 mg, read-out: Cmax): 13 ng/mL
- Cmax ([2]; male, dose 15 mg, read-out: Cmax): 25.9 ng/mL
- Cmax ([2]; male, dose 60 mg, read-out: Cmax): 92.9 ng/mL
- Cmax ([2]; male, dose 90 mg, read-out: Cmax): 172 ng/mL
- AUC(0-t) ([2]; male, human, plasma, dose 0.75 mg): 4.6 ng·h/mL
- half-life ([2]; male, human, plasma, dose 0.75 mg, read-out: t1/2 (converted)): 1.47 h
- AUC(0-t) ([2]; male, human, plasma, dose 1.5 mg): 9.99 ng·h/mL
- half-life ([2]; male, human, plasma, dose 1.5 mg, read-out: t1/2 (converted)): 1.65 h
- AUC(0-t) ([2]; male, human, plasma, dose 3 mg): 15.4 ng·h/mL
- half-life ([2]; male, human, plasma, dose 3 mg, read-out: t1/2 (converted)): 1.6 h
- Tmax ([2]; male, human, plasma, dose 3 mg, read-out: tmax): 0.78 h
- AUC(0-t) ([2]; male, human, plasma, dose 7.5 mg): 40.8 ng·h/mL
- half-life ([2]; male, human, plasma, dose 7.5 mg, read-out: t1/2 (converted)): 1.78 h
- AUC(0-t) ([2]; male, human, plasma, dose 15 mg): 84.1 ng·h/mL
- half-life ([2]; male, human, plasma, dose 15 mg, read-out: t1/2 (converted)): 1.97 h
- AUC(0-t) ([2]; male, human, plasma, dose 30 mg): 157 ng·h/mL
- half-life ([2]; male, human, plasma, dose 30 mg, read-out: t1/2 (converted)): 2.12 h
- AUC(0-t) ([2]; male, human, plasma, dose 60 mg): 231 ng·h/mL
- half-life ([2]; male, human, plasma, dose 60 mg, read-out: t1/2 (converted)): 3 h
- Tmax ([2]; male, human, plasma, dose 60 mg, read-out: tmax): 0.46 h
- AUC(0-t) ([2]; male, human, plasma, dose 90 mg): 467 ng·h/mL
- half-life ([2]; male, human, plasma, dose 90 mg, read-out: t1/2 (converted)): 3.16 h
- Tmax ([2]; male, human, plasma, dose 90 mg, read-out: tmax): 0.53 h
- half-life ([2]; male, human, plasma, range over doses, longer times at larger doses, read-out: Apparent elimination phase half life): 1.2 to 3.5 h
- Absorption [3, 4]: rapidly absorbed
- Time to peak plasma concentration [3, 4]: ≤ 10 min
- Effect on body weight ([3]; beagle dogs, fast dispersing tablet, 20 mg/kg): no adverse effect
- Food consumption on the day of administration ([3]; beagle dogs, fast dispersing tablet, 20 mg/kg, probably due to frequent blood collection): low
- Adverse clinical signs ([3]; female beagle dog, fast dispersing tablet (formulation as Example 3), 20 mg/kg via buccal cavity): No adverse clinical signs
- Adverse clinical signs ([3]; male beagle dog, fast dispersing tablet (formulation as Example 3), 20 mg/kg via buccal cavity): elevated pulse rate
